Measured values: patent US20250145635A1, “COMPOUND CONTAINING BIS(AZANYLYLIDENE) SULFONYL STRUCTURE AND USE THEREOF IN MEDICINE” (SCINNOHUB PHARMACEUTICAL CO., LTD., priority 2021, published 2025)

What follows are compounds tested against recombinant human PKR enzyme (Homo sapiens (Human), UniProt P30613) (assay: Pyruvate kinase (PKR) activity experiment). Conditions: activation of recombinant human PKR enzyme.
Assay type: biochemical
Protocol: • 1). A recombinant human PKR enzyme solution was formulated at a concentration of 60 ng/well (a 20 μL reaction system), and 5 μL of the solution was added into each well of a black transparent bottom 384-well plate. • 2). Compound solutions were formulated at different concentrations, with the final concentrations of 1000/300/100 nM (containing 1% DMSO). Each 5 μL of the compound solution was added into the plate in item 3.1 and mixed well. The plate was incubated at room temperature for 10 min. • 3). A reaction system was formulated according to the instructions of a kit (as shown in the table below), and 10 μL of the reaction system was added into each well of the 384-well plate, and mixed uniformly with the solution in item 3.2.
• 4). The 384-well plate was placed on a microplate reader to detect the fluorescence value at 540/590 nm, where the value was read every 2 minutes and the detection was conducted continuously for 1 hour. • 5). The Slope value within the detection time was calculated, and the 0.1% DMSO well was used as a control well to calculate a compound activation rate.
[formula] • 6). Fitting dose-effect curve
With the log value of the compound concentration as the X axis and the percentage activation rate as the Y axis, a dose-effect curve was fitted with the log(agonist) vs. response-variable slope of the analysis software GraphPad Prism 5, and the AC50 value of the activity of each compound against PKR was obtained.

Chain of recombinant human PKR enzyme (P30613 whole entry): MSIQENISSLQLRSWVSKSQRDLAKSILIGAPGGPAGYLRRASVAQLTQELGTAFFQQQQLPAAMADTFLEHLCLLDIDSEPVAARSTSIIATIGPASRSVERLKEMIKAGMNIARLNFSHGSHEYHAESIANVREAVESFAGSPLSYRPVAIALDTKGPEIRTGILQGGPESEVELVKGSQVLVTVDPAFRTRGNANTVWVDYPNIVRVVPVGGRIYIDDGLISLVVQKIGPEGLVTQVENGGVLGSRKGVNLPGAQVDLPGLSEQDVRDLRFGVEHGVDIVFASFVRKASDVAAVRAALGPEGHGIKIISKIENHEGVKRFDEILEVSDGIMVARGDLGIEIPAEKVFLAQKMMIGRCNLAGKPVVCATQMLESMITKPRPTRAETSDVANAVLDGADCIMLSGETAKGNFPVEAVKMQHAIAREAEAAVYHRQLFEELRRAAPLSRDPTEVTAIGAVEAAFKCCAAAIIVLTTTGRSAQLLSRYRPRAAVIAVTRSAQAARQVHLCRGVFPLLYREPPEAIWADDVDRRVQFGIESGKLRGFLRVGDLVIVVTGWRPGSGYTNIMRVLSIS

**Q.** Which AC50 does the source give for `Cc1nc2c(C(O)C(=O)N3CC(=C4CN(S(=O)(=O)c5ccc(OC(F)F)cc5)C4)C3)cccc2s1` (stereo not drawn) [Compound 24, 1-(1′-((4-(difluoromethoxy)phenyl)sulfonyl)-1′,4′-dihydro-2H,2′H-[3,3′-diazetidinylidene]-1(4H)-yl)-2-hydroxy-2-(2-methylbenzo[d]thiazol-4-yl)ethan-1-one] here?
**A.** 300 to 1000 nM

**Q.** Which AC50 does the source give for `O=C(C(CO)c1ccc(F)cc1)N1CC(=C2CN(S(=O)(=O)c3ccc4c(c3)OC(F)(F)O4)C2)C1` (stereo not drawn) [Compound 36, 1-(1′-((2,2-difluorobenzo[d][1,3]dioxolan-5-yl)sulfonyl)-1′,4′-dihydro-2H,2′H-[3,3′-diazetidinylidene]-1(4H)-yl)-2-(4-fluorophenyl)-3-hydroxypropan-1-one] here?
**A.** 300 to 1000 nM

**Q.** For `O=C([C@H](CO)c1ccccc1)N1CC(=C2CN(S(=O)(=O)c3ccc(-c4ncco4)c(F)c3)C2)C1` [Compound 27, (S)-1-(1′-((3-fluoro-4-(oxazol-2-yl)phenyl)sulfonyl)-1′,4′-dihydro-2H,2′H-[3,3′-diazetidinylidene]-1(4H)-yl)-3-hydroxy-2-phenylpropan-1-one], which AC50 is on record?
**A.** 300 to 1000 nM

**Q.** How did the AC50 turn out when `COc1ccc(S(=O)(=O)N2CC(=C3CN(C(=O)[C@H](CO)c4ccccc4)C3)C2)nc1` [Compound 67, (S)-3-hydroxy-1-(1′-((5-methoxypyridin-2-yl)sulfonyl)-1′,4′-dihydro-2H,2′H-[3,3′-diazetidinylidene]-1(4H)-yl)-2-phenylpropan-1-one] was run?
**A.** < 100 nM

**Q.** How did the AC50 turn out when `N#Cc1ccc(C(CO)C(=O)N2CC(=C3CN(S(=O)(=O)c4ccccn4)C3)C2)cc1` (stereo not drawn) [Compound 85, 4-(3-hydroxy-1-oxo-1-(1′-(pyridin-2-ylsulfonyl)-1′,4′-dihydro-2H,2′H-[3,3′-diazetidinylidene]-1(4H)-yl)propan-2-yl)benzonitrile] was run?
**A.** 300 to 1000 nM

**Q.** Which AC50 does the source give for `COc1ccc(S(=O)(=O)N2CC(=C3CN(C(=O)[C@H](CO)c4ccc(F)cc4F)C3)C2)nc1` [Compound 87, (S)-2-(2,4-difluorophenyl)-3-hydroxy-1-(1′-((5-methoxypyridin-2-yl)sulfonyl)-1′,4′-dihydro-2H,2′H-[3,3′-diazetidinylidene]-1(4H)-yl)propan-1-one] here?
**A.** < 100 nM

**Q.** For `Cc1ccc(C(CO)C(=O)N2CC(=C3CN(S(=O)(=O)c4ccc5ncsc5c4)C3)C2)cc1` (stereo not drawn) [Compound 45, 1-(1′-(benzo[d]thiazol-6-ylsulfonyl)-1′,4′-dihydro-2H,2′H-[3,3′-diazetidinylidene]-1(4H)-yl)-3-hydroxy-2-(p-tolyl)propan-1-one], which AC50 is on record?
**A.** < 100 nM

**Q.** For `O=C(C(CO)c1ccc(F)c(Cl)c1)N1CC(=C2CN(S(=O)(=O)c3ccccn3)C2)C1` (stereo not drawn) [Compound 59, 2-(3-chloro-4-fluorophenyl)-3-hydroxy-1-(1′-(pyridin-2-ylsulfonyl)-1′,4′-dihydro-2H,2′H-[3,3′-diazetidinylidene]-1(4H)-yl)propan-1-one], which AC50 is on record?
**A.** 101 to 300 nM

**Q.** Which AC50 does the source give for `O=C([C@H](CO)c1ccccc1)N1CC(=C2CN(S(=O)(=O)c3ccc(Cl)cn3)C2)C1` [Compound 66] here?
**A.** 101 to 300 nM

**Q.** With `N#Cc1ccc(S(=O)(=O)N2CC(=C3CN(C(=O)[C@H](CO)c4ccccc4)C3)C2)cc1` [Compound 65, (S)-4-(1′-(3-hydroxy-2-phenylpropionyl)-1′,4′-dihydro-2H,2′H-[3,3′-diazetidinylidene]-1(4H)-ylsulfonyl)benzonitrile] as the compound, how does the AC50 read?
**A.** 101 to 300 nM

**Q.** For `O=C(C(CO)c1ccc2ccccc2c1)N1CC(=C2CN(S(=O)(=O)c3ccc4ncsc4c3)C2)C1` (stereo not drawn) [Compound 32, 1-(1′-(benzo[d]thiazol-6-ylsulfonyl)-1′,4′-dihydro-2H,2′H-[3,3′-diazetidinylidene]-1(4H)-yl)-3-hydroxy-2-(naphthalene-2-yl)propan-1-one], which AC50 is on record?
**A.** < 100 nM

**Q.** For `O=C(C(CO)c1cc(F)cc(Cl)c1)N1CC(=C2CN(S(=O)(=O)c3ccccn3)C2)C1` (stereo not drawn) [Compound 86, 2-(3-chloro-5-fluorophenyl)-3-hydroxy-1-(1′-(pyridin-2-ylsulfonyl)-1′,4′-dihydro-2H,2′H-[3,3′-diazetidinylidene]-1(4H)-yl)propan-1-one], which AC50 is on record?
**A.** 300 to 1000 nM

**Q.** Which AC50 does the source give for `O=C([C@@H](CO)c1ccc(F)cc1)N1CC(=C2CN(S(=O)(=O)c3ccc4c(c3)OCCO4)C2)C1` [Compound 31, (R)-1-(1′-((2,3-dihydrobenzo[b][1,4]dioxin-6-yl)sulfonyl)-1′,4′-dihydro-2H,2′H-[3,3′-diazetidinylidene]-1(4H)-yl)-2-(4-fluorophenyl)-3-hydroxypropan-1-one] here?
**A.** 300 to 1000 nM

**Q.** `O=C([C@H](CO)c1ccccc1)N1CC(=C2CN(S(=O)(=O)c3ccc(OC4CC4)cn3)C2)C1` [Compound 82, (S)-1-(1′-((5-cyclopropoxypyridin-2-yl)sulfonyl)-1′,4′-dihydro-2H,2′H-[3,3′-diazetidinylidene]-1(4H)-yl)-3-hydroxy-2-phenylpropan-1-one] was tested. Which AC50 did it give?
**A.** < 100 nM

**Q.** With `O=C([C@@H](CO)c1ccc(F)cc1F)N1CC(=C2CN(S(=O)(=O)c3ccccn3)C2)C1` [Compound 84, (R)-2-(2,4-difluorophenyl)-3-hydroxy-1-(1′-(pyridin-2-ylsulfonyl)-1′,4′-dihydro-2H,2′H-[3,3′-diazetidinylidene]-1(4H)-yl)propan-1-one] as the compound, how does the AC50 read?
**A.** 300 to 1000 nM

**Q.** Which AC50 does the source give for `O=C(C(CO)c1ccc(F)c(F)c1)N1CC(=C2CN(S(=O)(=O)c3ccccn3)C2)C1` (stereo not drawn) [Compound 61, 2-(3,4-difluorophenyl)-3-hydroxy-1-(1′-(pyridin-2-ylsulfonyl)-1′,4′-dihydro-2H,2′H-[3,3′-diazetidinylidene]-1(4H)-yl)propan-1-one] here?
**A.** 300 to 1000 nM

**Q.** `COc1ccc(S(=O)(=O)N2CC(=C3CN(C(=O)[C@@H](CO)c4ccc(F)cc4F)C3)C2)nc1` [Compound 88, (R)-2-(2,4-difluorophenyl)-3-hydroxy-1-(1′-((5-methoxypyridin-2-yl)sulfonyl)-1′,4′-dihydro-2H,2′H-[3,3′-diazetidinylidene]-1(4H)-yl)propan-1-one] was tested. Which AC50 did it give?
**A.** 300 to 1000 nM

**Q.** Which AC50 does the source give for `CN1CCOc2ccc(S(=O)(=O)N3CC(=C4CN(C(=O)[C@H](CO)c5ccccc5)C4)C3)cc21` [Compound 39, (S)-3-hydroxy-1-(1′-((4-methyl-3,4-dihydro-2H-benzo[b][1,4]oxazin-6-yl)sulfonyl)-1′,4′-dihydro-2H,2′H-[3,3′-diazetidinylidene]-1(4H)-yl)-2-phenylpropan-1-one] here?
**A.** < 100 nM

**Q.** `O=C([C@H](CO)c1ccc(F)cc1)N1CC(=C2CN(S(=O)(=O)c3ccc4c(c3)OCCO4)C2)C1` [Compound 30, (S)-1-(1′-((2,3-dihydrobenzo[b][1,4]dioxin-6-yl)sulfonyl)-1′,4′-dihydro-2H,2′H—[3,3′-diazetidinylidene]-1(4H)-yl)-2-(4-fluorophenyl)-3-hydroxypropan-1-one] was tested. Which AC50 did it give?
**A.** < 100 nM

**Q.** How did the AC50 turn out when `O=C([C@H](CO)c1ccccc1)N1CC(=C2CN(S(=O)(=O)c3ccc(OC(F)(F)F)cc3)C2)C1` [Compound 9, (S)-3-hydroxy-2-phenyl-1-(1′-((4-(trifluoromethoxy)phenyl)sulfonyl)-1′,4′-dihydro-2H,2′H-[3,3′-diazetidinylidene]-1(4H)-yl)propan-1-one] was run?
**A.** 101 to 300 nM

**Q.** How did the AC50 turn out when `O=C(C(CO)c1cccc(F)c1)N1CC(=C2CN(S(=O)(=O)c3ccc4ncsc4c3)C2)C1` (stereo not drawn) [Compound 46, 1-(1′-(benzo[d]thiazol-6-ylsulfonyl)-1′,4′-dihydro-2H,2′H-[3,3′-diazetidinylidene]-1(4H)-yl)-2-(3-fluorophenyl)-3-hydroxypropan-1-one] was run?
**A.** < 100 nM
